This is an account of results in US6372777B1, “Cyclic AMP-specific phosphodiesterase inhibitors” (ICOS Corporation, priority 1999, dated 2002).

Data set [1] has as its system serum TNFα. The data set can be described thus: Combined mouse endotoxin-stimulated TNFα release assay (serum TNFα). To be noted: LPS mouse model. It counts as in vivo, female Balb/c mice. On the procedure: The purpose of this study was to determine the efficacy of PDE4 inhibitors in vivo in an LPS mouse model together with a determination with respect to central nervous system (CNS) side-effects manifested by a decrease in spontaneous mobility. The test animals were female Balb/c mice, having an average weight of about 20 g. The PDE4 inhibitors, formulated in 30% Cremophor® EL, were administered via intraperitoneal (i.p.) injections at doses of 0.1, 1.0, 10.0, and 100 mg/kg. Individual dose volumes (about […]) were adjusted based on the body weights measured. One hour later, 5 mg/kg LPS in a final volume of 200 μL was injected via the tail vein to each animal. Ninety minutes following the LPS treatment, the animals were bled and serum samples were collected before being stored at −70° C. until assayed. For efficacy determination, the serum samples were diluted two-fold and TNFα levels were determined using the CYTOSCREEN® Immunoassay Kit (Biosource International) The data were averaged between triplicate sample subjects for each of the tested compounds.

Data set [2] has as its system spontaneous mobility. The data set can be described thus: Locomotor activity / sedative side-effect visual scoring. It counts as in vivo, female Balb/c mice. On the set-up: key: Vehicle control animals were rated a single “+”; animals that were effectively immobilized and stretched out on the bottom of the cage with little detectable movement were rated as “++++.”. To be noted: 10 mg/kg i.p., mice. On the procedure:
The purpose of this study was to determine the efficacy of PDE4 inhibitors in vivo in an LPS mouse model together with a determination with respect to central nervous system (CNS) side-effects manifested by a decrease in spontaneous mobility.
The test animals were female Balb/c mice, having an average weight of about 20 g. The PDE4 inhibitors, formulated in 30% Cremophor® EL, were administered via intraperitoneal (i.p.) injections at doses of 0.1, 1.0, 10.0, and 100 mg/kg. Individual dose volumes (about […]) were adjusted based on the body weights measured. One hour later, 5 mg/kg LPS in a final volume of 200 μL was injected via the tail vein to each animal. Ninety minutes following the LPS treatment, the animals were bled and serum samples were collected before being stored at −70° C. until assayed.
For side-effect profiling, a subjective visual scoring system was utilized at 5 min and 20min after administration of PDE4 inhibitors. […] In this instance, the subjects could be monitored continuously over pre-set intervals.
Movement of the X-Y plane, or rearing up on the hind legs, was quantified by counting the number of “light-beam” crosses per unit of time. […] The quantitative scoring correlated well with the subjective measurements described above.

With `COC(=O)N1C[C@@H](c2ccc(OC)c(OC3CCCC3)c2)[C@](C)(C(C)=O)C1` (relative stereo) [Comparative Example, trans-3-(3-cyclopentoxy-4-methoxyphenyl)-1-methoxycarbonyl-4-methyl-4-(methylcarbonyl)pyrrolidine, reference compound], the “% TNFα Inhibition” value in data set [1] (1 mg/kg i.p.) came out at 43%; in data set [1] (10 mg/kg i.p.), 100%; in data set [1] (100 mg/kg i.p.), 100%. In addition, the “Sedative Effect” value in data set [2] is “+”.
